{"source": "paper PMC11758220", "about": "“Identification of a Privileged Scaffold for Inhibition of Sterol Transport Proteins through the Synthesis and Ring Distortion of Diverse, Pseudo-Natural Products” (ACS Central Science, 2025)", "key": {"[1]": {"experiment": "Stability test of spirooxepinoindole in DMSO and FP assay buffer (LC-LRMS)", "assay_type": "physicochemical", "method": "Stability test of spirooxepinoindole\nThe stability of the spirooxepinoindoles in dimethyl sulfoxide and in the assay buffer was tested to be […]\nA sample in the FP assay buffer was prepared from the dimethyl sulfoxide stock solution of compound 15b. The dimethyl sulfoxide stock solution was prepared 2021.12.10, and the sample in the assay buffer was prepared 2022.09.28. The samples were monitored by LC-LRMS over time to look for degradation. Both acidic and basic LC-LRMS runs were used since acidic conditions could catalys e the re-condensation of potential hydrolysed spirooxepinoindoles.\nSample: Compound 15b in FP assay buffer: 20 mM HEPES, 300 mM NaCl, 0.01 %v/v Tween -20, 0.5 %v/v glycerol, 2 mM DTT. Concentration: 1.7 mM.\nFigure S6: LC-LRMS trace of the stability test of spirooxepinoindole 15b in FP assay buffer measured using the acidic run. (a) UV chromatogram after zero hours, (b) UV chromatogram after four hours, (c) UV chromatogram after 20 hours, (d) MS spectrum.\nLC-LRMS (ESI+) m/z: 332.0 found for [M+H]+ for 15b, 332.1 calcd. For C17H19BrNO+. […]\nFigure S7: LC-LRMS trace of the stability test of spirooxepinoindole 15b in FP assay buffer measured using the basic run. (a) UV chromatogram after zero hours, (b) UV chromatogram after four hours, (c) UV chromatogram […]\nfor 20 hours showing no sign of degradation (Figure S6 and Figure S7). […]"}, "[2]": {"biological_target": "T1, STARD1 (Homo sapiens, UniProt P49675)", "T1 construct": "STARD1(66-284); made in house; host or cells: E. coli BL21(DE3)", "T1 sequence (P49675 66-284)": "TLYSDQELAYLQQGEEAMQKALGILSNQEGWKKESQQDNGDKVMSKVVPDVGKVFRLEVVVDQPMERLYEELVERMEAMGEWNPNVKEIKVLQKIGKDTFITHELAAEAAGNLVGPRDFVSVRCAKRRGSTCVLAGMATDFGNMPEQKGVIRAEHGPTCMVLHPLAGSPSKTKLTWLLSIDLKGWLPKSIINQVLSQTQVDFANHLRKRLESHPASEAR", "experiment": "Effect on intrinsic protein fluorescence, STARD1", "conditions": "protein 1 µM, excitation 280 nm", "method": "Effect of spirooxepinoindoles on intrinsic protein fluorescence\nFigure S12: Spirooxepinoindoles 21a and 15f affect intrinsic protein fluorescence in dose-dependent fashion:\nRespective proteins (1 µM) were incubated with the compounds at different doses. Proteins were excited at 280 ± 10 nm and fluorescence spectra were measured from 315 ± 20 nm to 600 ± 20 nm with a step size of 2 nm. A) STARD1 and 21a. B) ORP1 and 21a. C) ORP2 and 21a. D) ORP2 and 15f.\n(1 picture or pasted object on this page, not shown here)\nSuperdex 75 pg (Cytiva) using an ÄKTA Explorer (Cytiva) in buffer containing 10 mM Tris -HCl, pH 8, 150 mM NaCl, 5 % glycerol and 2 mM DTT.\nFluorescence intensity and polarisation\nFluorescence intensity and polarisation (FP) experiments were performed in a buffer containing 20 mM HEPES pH 7.5, 300 mM NaCl, 0.01 %v/v Tween-20, 0.5% glycerol and 2 mM DTT in a final volume of 30 µl in black, flat-bottom, non-binding 384-well plates (Corning). All compounds were dispensed using the LabCyte Echo 550 Liquid handler. […] For competition experiments, 20 nM 22-NBD-cholesterol or 80 nM 25-NBD-cholesterol was mixed with protein and incubated with desired concentrations of screening compounds (Table S4) The fluorescence polarisation signal was measured using a Spark Cyto multimode microplate reader (Tecan) with filters set at 485 ± 20 nm for excitation and at 535 ± 20 nm for emission. […]"}, "[3]": {"biological_target": "T2, STARD3 (Homo sapiens, UniProt Q14849)", "T2 construct": "STARD3(216-444); made in house; host or cells: E. coli BL21(DE3)", "T2 sequence (Q14849 216-444)": "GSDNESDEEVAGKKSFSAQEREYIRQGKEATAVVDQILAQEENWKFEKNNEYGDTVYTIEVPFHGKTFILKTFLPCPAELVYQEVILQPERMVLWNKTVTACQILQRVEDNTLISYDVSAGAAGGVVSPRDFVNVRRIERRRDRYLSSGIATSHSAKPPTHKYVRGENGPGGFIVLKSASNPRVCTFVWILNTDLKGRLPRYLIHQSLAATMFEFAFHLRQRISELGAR", "set-up": "method as in Depta et al.[43]", "conditions": "data reproduced; ref Depta et al.[43]; read-out: STARD3 Kd,app (DSF); cited from earlier work"}}}
{"compound": "C[C@]12CC[C@@H]3C[C@H]1CC[C@@]21C(=Nc2ccc(Br)cc21)O3", "note": "(racemic) [Compound 15b]", "values": [{"measurement": "Stability in FP assay buffer (no sign of degradation)", "setting": "[1]; 20 mM HEPES, 300 mM NaCl, 0.01 %v/v Tween-20, 0.5 %v/v glycerol, 2 mM DTT, 1.7 mM", "value": 20, "unit": "h"}, {"measurement": "Stability in dimethyl sulfoxide (no sign of degradation)", "setting": "[1]; DMSO stock solution", "value": "several months"}]}
{"compound": "C[C@]12CC[C@@H]3C[C@H]1CC[C@@]21C(=Nc2ccc(-c4ccccc4)cc21)O3", "note": "[Compound 21a]", "values": [{"measurement": "Quenching of intrinsic fluorescence of STARD1", "setting": "[2]", "value": "dose-dependently quenches"}]}
{"compound": "CCN(CC)CCO[C@H]1CC[C@@]2(C)C(=CC[C@@H]3[C@@H]2CC[C@]2(C)C(=O)CC[C@@H]32)C1", "note": "[Compound U18666A, reference compound]", "values": [{"measurement": "Kd", "setting": "[3]", "value": "> 30", "unit": "µM"}]}
